The values below come from US12208163B2, “Nanostructured lipid gel, method for preparation and use” (CONSEJO SUPERIOR DE INVESTIGACIONES CIENTÍFICAS, priority 2018, dated 2025).

The test system of data set [1] is chorioallantoic membrane of a chicken egg. Kind of data set: Eye irritation assay (HET-CAM test). To be noted: for OII (Ocular Irritation Index): calculated from H, V and C times; for Classification: interpretation of OII by Table 2; for Clotting time / Haemorrhage time / Vasoconstriction time: time when change appears, observed for 5 minutes. The source says: With the aim of proposing potential uses of the gel in ocular applications, the possible eye irritation of this material was studied by means of a HET-CAM test. The gel formed from HSPC and OA with a molar ratio of 3:1 and a total lipid concentration of 5% was directly applied to the chorioallantoic membrane of a chicken egg due to its similarity to the human cornea. The appearance of vascular lesion or clotting in response to a compound is the basis for using this technique as an indicator of the probability that a substance may harm the mucous membranes, especially the cornea of the human eye, in vitro. In order to execute the method, the egg shell is carefully removed, moistening the membrane with a NaCl solution at 37° C. Next, the NaCl is removed and the white membrane is removed without harming any blood vessel. Next, the gel sample is applied and the appearance of haemorrhage (H), vasoconstriction (V) and/or clotting (C) can be observed for 5 minutes. Lastly, the Ocular Irritation Index (OII) is estimated using the following formula: [formula] H, V and C are the time in seconds when this change appears. If there is no alteration, they are equal to 300. The result obtained from the formula can be interpreted on the basis of Table 2: [table]

The nature of data set [2]: in vitro cutaneous permeation assay on pig skin, fluorescence microscopy. The format is in vitro ADME. As to the method: In order to evaluate the potential of these gels as cutaneous application systems, an in vitro permeation assay was conducted on pig skin and observations were made using fluorescence microscopy. Two gels were formed which were applied to the skin surface. One of them was formed by incorporating a red fluorescent probe (Rhodamine B) in order to observe in which areas of the skin the gel-forming phospholipids are retained. In the other gel, a fluorescent green probe (fluorescein) was added in the aqueous phase with the aim of simulating a possible water-soluble active ingredient incorporated to the gel. The gel was gently applied to the skin and left to permeate overnight at 37° C. in a humid environment. Next, the skin was cut into sections and the cells marked in blue in order to distinguish the different skin layers.

With `[Na+].[OH-]` [NaOH], in data set [1], the “OII (Ocular Irritation Index)” value is given as 17.79, the Classification entry was “Irritating (9-21)”, the “Clotting time” value was 20 s and the “Haemorrhage time” value is recorded as 28 s. For the same molecule, in data set [1], the “Vasoconstriction time” value came out at 13 s.
On to `CCCCCCCCCCCCOS(=O)(=O)[O-].[Na+]` [1% SDS, SDS], for which, in data set [1], the “OII (Ocular Irritation Index)” value is listed as 3.23, the Classification entry is “Mildly”, the “Clotting time” value was 0 s and the “Haemorrhage time” value came to 110 s. Moreover, the “Vasoconstriction time” value in data set [1] worked out at 0 s.
`O=C1OC2(c3ccc(O)cc3Oc3cc(O)ccc32)c2ccccc21` [fluorescein]: the “skin permeation of fluorescein from aqueous solution” value in data set [2] (control, aqueous solution with fluorescein without incorporating the gel) is recorded as “only slightly incorporated in the stratum corneum”. The “skin permeation of fluorescein dissolved in the aqueous phase of the gel” value in data set [2] (fluorescein in gel, overnight at 37° C., FIG. 6) was “capable of permeating the skin, covering the entire stratum corneum and epidermis”.
